Measured values taken from patent US20240368115A1, “REGULATOR CONTAINING TRICYCLIC DERIVATIVE, PREPARATION METHOD THEREFOR AND APPLICATION THEREOF” (SHUJING BIOPHARMA CO., LTD, priority 2021, published 2024).
pEC50, pIC50: −log10 of the molar value.

Assays:
Type in all cases: cell-based
[1] = biological target: T1, D2S receptor (Homo sapiens, UniProt P14416); experiment: D2S receptor cAMP agonist test; conditions: HEK293 cell strain stably expressing D2S receptor
T1 construct: expressed in transfected cells
T1 sequence (P14416 1-414 isoform P14416-2): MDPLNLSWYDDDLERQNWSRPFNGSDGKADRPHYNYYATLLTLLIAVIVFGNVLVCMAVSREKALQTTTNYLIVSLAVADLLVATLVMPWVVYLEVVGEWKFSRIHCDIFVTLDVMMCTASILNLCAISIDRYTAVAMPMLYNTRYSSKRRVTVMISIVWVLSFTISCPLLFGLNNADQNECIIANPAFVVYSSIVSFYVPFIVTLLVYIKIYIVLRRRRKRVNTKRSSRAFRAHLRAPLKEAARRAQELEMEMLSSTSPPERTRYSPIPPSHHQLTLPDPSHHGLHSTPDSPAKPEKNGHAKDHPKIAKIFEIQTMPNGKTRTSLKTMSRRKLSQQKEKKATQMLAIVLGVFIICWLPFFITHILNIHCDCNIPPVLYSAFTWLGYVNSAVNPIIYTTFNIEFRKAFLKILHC

[2] = biological target: 5-HT2A receptor (Homo sapiens, UniProt P28223); experiment: Calcium flux test for 5-HT2A receptor; conditions: CHO cell strain stably expressing 5-HT2A receptor
Chain of 5-HT2A receptor (P28223 whole entry): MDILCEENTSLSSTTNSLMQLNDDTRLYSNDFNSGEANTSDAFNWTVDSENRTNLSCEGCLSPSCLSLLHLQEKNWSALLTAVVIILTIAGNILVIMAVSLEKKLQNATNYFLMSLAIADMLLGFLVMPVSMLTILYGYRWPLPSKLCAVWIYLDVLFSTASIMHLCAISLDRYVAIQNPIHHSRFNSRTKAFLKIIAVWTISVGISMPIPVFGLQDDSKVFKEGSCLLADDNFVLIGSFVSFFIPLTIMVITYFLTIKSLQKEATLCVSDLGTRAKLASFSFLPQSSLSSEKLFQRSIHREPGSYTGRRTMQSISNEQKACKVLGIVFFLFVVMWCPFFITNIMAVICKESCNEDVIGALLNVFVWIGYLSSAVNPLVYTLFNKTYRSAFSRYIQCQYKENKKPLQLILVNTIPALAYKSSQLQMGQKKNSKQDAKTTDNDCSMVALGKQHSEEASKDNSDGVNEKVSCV

[3] = biological target: T2, D2L receptor (Homo sapiens, UniProt P14416); experiment: D2L receptor cAMP agonist test; conditions: HEK293 cell strain stably expressing D2L receptor
T2 construct: expressed in transfected cells
T2 sequence (P14416 whole entry): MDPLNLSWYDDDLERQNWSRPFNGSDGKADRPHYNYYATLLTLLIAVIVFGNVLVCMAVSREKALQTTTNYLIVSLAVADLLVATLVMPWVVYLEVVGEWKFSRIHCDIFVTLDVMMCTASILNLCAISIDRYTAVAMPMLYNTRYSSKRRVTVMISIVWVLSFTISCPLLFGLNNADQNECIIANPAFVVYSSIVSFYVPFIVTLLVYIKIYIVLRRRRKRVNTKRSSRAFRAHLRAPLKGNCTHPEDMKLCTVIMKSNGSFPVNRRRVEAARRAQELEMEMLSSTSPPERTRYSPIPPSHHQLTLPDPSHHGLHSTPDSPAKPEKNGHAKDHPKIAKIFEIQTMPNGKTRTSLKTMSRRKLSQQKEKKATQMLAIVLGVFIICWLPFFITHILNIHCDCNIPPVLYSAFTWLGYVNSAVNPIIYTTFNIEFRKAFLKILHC

For `O=C1Nc2cc(OCCCCN3CCN(c4cccc(Cl)c4Cl)CC3)ccc2C2CC12` (stereo not drawn) [Example 1, 5-(4-(4-(2,3-Dichlorophenyl)piperazin-1-yl)butoxy)-3,7b-dihydro-1H-cyclopropa[c]quinolin-2(1aH)-one], the pEC50 ([1]; cAMP, forskolin 5×10^−7 M) was 9.01, the “D2S Max Act %” value ([1]; positive control dopamine 1×10^−7 M) was 114.9% and the pIC50 ([2]; calcium flux, antagonism of serotonin) was 6.14. For the same compound, the “5-HT2A Max Inh %” value ([2]; positive control ketanserin 10^−7 M) was 98.4%, the pEC50 ([3]; cAMP, forskolin 0.5 μM) was 9.21 and the “D2L Max Act %” value ([3]; positive control dopamine 1 μM) was 54.4%.
